In patent US9249129B2, “Morpholino substituted urea derivatives as mTOR inhibitors” (CELLZOME LIMITED, priority 2010, dated 2016) one finds IC50 data, which are given here for 16 compounds.

SMILES strings stand for the structures. A value given as a limit tells only on which side of the number the result lay.

In the test the test system is Akt serine-473 phosphorylation in HEK293T/17 cells. The experiment in a line: In vitro phospho-Akt cellular assay (pAkt S473). The format is cell-based. The following applies: Homo sapiens, Table 6, 2 hours, Akt Ser473, read-out: pAKT (Phospho-Akt cell assay data, activity level). The text has this:
In Vitro Phospho-S6 and Phospho-Akt Cellular Assay
Activation of mTOR signaling results in phosphorylation of several downstream targets. In cells, mTOR exists in two different protein complexes. The mTOR Complex-1 (mTORC1) phosphorylates and activates S6 Kinase 1 (S6K1) and S6 Kinase 2 (S6K2) (also known as p70S6K) which then phosphorylate S6 Ribosomal Protein (S6RP) (also known as RPS6). S6RP is phosphorylated on serine 235, serine 236, serine 240 and serine 244 by both pS6K1 and pS6K2. The mTOR Complex-2 (mTORC2) phosphorylates AKT on serine 473 which activates the AKT signaling pathway.
The assay measures a test compound's inhibition of S6RP serine-240/244 phosphorylation and inhibition of Akt serine-473 phosphorylation in human embryonic kidney derived HEK293T/17 cells (ATCC CRL-11268).
The HEK293T/17 cell line is maintained in DMEM media (Invitrogen catalogue number 41965-039) supplemented with 10% FCS at 37° C. in a 5% CO2 humidified incubator.
Cells are seeded in 96-well plates at 40,000 cells/well (pS6RP S240/244 assay) or 80,000 cells/well (pAkt 5473 assay) in 90 μl growth media (DMEM, 2% FCS). Plates are incubated for 1 hour in a humidified incubator to allow the cells to adhere. Cells are treated with 8 concentrations of test compounds or DMSO alone for controls (final DMSO concentration 0.1%) and incubated at 37° C. for 2 hours. Then 20 μl of 5× concentrated lysis buffer (750 mM NaCl, 100 mM Tris pH7.4, 5 mM EDTA, 5 mM EGTA, 5% Triton X-100) is added, plates are sealed and incubated for 15 minutes at 4° C. with gentle shaking. After cell lysis, 25 μl cell lysate is transferred to a MesoScale plate coated with an antibody to pS6RP Ser240/244 (MesoScale Discovery K150DGD-3) or an antibody to pAkt Ser 473 (MesoScale Discovery K151DGD-3). Plates have been blocked before by incubation with 150 μl MesoScale Discovery Blocking Solution-A for 1 hour at room temperature followed by washing with 150 μl 1× Tris wash buffer per well. After the transfer of the cell lysate to the MSD plate, the pS6RP (or pAkt) protein is captured on the coated antibody by incubation at room temperature for 1 hour with gentle shaking. After the capture step the plate is washed three times with 150 μl of 1× Tris wash buffer per well. Then 25 μl detection antibody conjugated with a Sulfo-Tag is added and incubated for 1 hour at room temperature with gentle shaking. Subsequently the antibody solution is removed and the plate is washed 3 times with 150 μl 1× Tris wash buffer per well and 150 μl Read buffer is added. The plates are analysed on a MSD 2400 Plate Reader (MesoScale Discovery). Data analysis is performed using nonlinear regression for a sigmoidal dose-response with a variable slope.
Turning to `CCNC(=O)Nc1ccc(-c2cc(-c3cc(F)ccc3S(C)(=O)=O)nc(N3CCOC[C@@H]3C)n2)cc1` [Example 2, (S)-1-ethyl-3-(4-(6-(5-fluoro-2-(methylsulfonyl)phenyl)-2-(3-methylmorpholino)pyrimidin-4-yl)phenyl)urea], the IC50 was less than 100 nM. Under `C[C@H]1COCCN1c1cc(-c2ccccc2S(C)(=O)=O)nc(-c2ccc(NC(=O)NC3CC3)cc2)n1` [Example 6, (S)-1-cyclopropyl-3-(4-(4-(3-methylmorpholino)-6-(2-(methylsulfonyl)phenyl)pyrimidin-2-yl)phenyl)urea] stands less than 100 nM; under `C[C@H]1COCCN1c1cc(-c2ccc(F)nc2)nc(-c2ccc(NC(=O)NC3CC3)cc2)n1` [Example 21, (S)-1-cyclopropyl-3-(4-(4-(6-fluoropyridin-3-yl)-6-(3-methylmorpholino)pyrimidin-2-yl)phenyl)urea], 100 to 1000 nM. To `C[C@H]1COCCN1c1cc(-c2cncc(F)c2)nc(-c2ccc(NC(=O)NC3CC3)cc2)n1` [Example 23, (S)-1-cyclopropyl-3-(4-(4-(5-fluoropyridin-3-yl)-6-(3-methylmorpholino)pyrimidin-2-yl)phenyl)urea] belongs less than 100 nM; to `C[C@H]1COCCN1c1nc(-c2ccc(NC(=O)NC3CC3)cc2)cc(-c2cc(F)ccc2S(C)(=O)=O)n1` [Example 40, (S)-1-cyclopropyl-3-(4-(6-(5-fluoro-2-(methylsulfonyl)phenyl)-2-(3-methylmorpholino)pyrimidin-4-yl)phenyl)urea], less than 100 nM. Under `C[C@H]1COCCN1c1nc(-c2ccc(NC(=O)NCCO)cc2)cc(-c2cc(F)ccc2S(C)(=O)=O)n1` [Example 41, (S)-1-(4-(6-(5-fluoro-2-(methylsulfonyl)phenyl)-2-(3-methylmorpholino)pyrimidin-4-yl)phenyl)-3-(2-hydroxyethyl)urea] stands less than 100 nM; under `C[C@H]1COCCN1c1cc(-c2ccccn2)nc(-c2ccc(NC(=O)NC3CC3)cc2)n1` [Example 42, (S)-1-cyclopropyl-3-(4-(4-(3-methylmorpholino)-6-(pyridin-2-yl)pyrimidin-2-yl)phenyl)urea], less than 100 nM; under `C[C@H]1COCCN1c1cc(-c2ccccn2)nc(-c2ccc(NC(=O)NCCO)cc2)n1` [Example 43, (S)-1-(2-hydroxyethyl)-3-(4-(4-(3-methylmorpholino)-6-(pyridin-2-yl)pyrimidin-2-yl)phenyl)urea], less than 100 nM. Turning to `C[C@H]1COCCN1c1nc(-c2ccc(NC(=O)NCCF)cc2)cc(-c2cc(F)ccc2S(C)(=O)=O)n1` [Example 44, (S)-1-(4-(6-(5-fluoro-2-(methylsulfonyl)phenyl)-2-(3-methylmorpholino)pyrimidin-4-yl)phenyl)-3-(2-fluoroethyl)urea], the IC50 is less than 100 nM. Under `C[C@H]1COCCN1c1nc(-c2ccc(NC(=O)NC3CC3)cc2)cc(-c2cccnc2S(C)(=O)=O)n1` [Example 46, (S)-1-cyclopropyl-3-(4-(2-(3-methylmorpholino)-6-(2-(methylsulfonyl)pyridin-3-yl)pyrimidin-4-yl)phenyl)urea] stands less than 100 nM; under `C[C@H]1COCCN1c1nc(-c2ccc(NC(=O)NCC(F)F)cc2)cc(-c2cc(F)ccc2S(C)(=O)=O)n1` [Example 47, (S)-1-(2,2-difluoroethyl)-3-(4-(6-(5-fluoro-2-(methylsulfonyl)phenyl)-2-(3-methylmorpholino)pyrimidin-4-yl)phenyl)urea], less than 100 nM. Under `C[C@H]1COCCN1c1ccnc(-c2ccc(NC(=O)Nc3ccncc3)cc2)n1` [Example 60, (S)-1-(4-(4-(3-methylmorpholino)pyrimidin-2-yl)phenyl)-3-(pyridin-4-yl)urea] stands less than 100 nM; under `O=C(Nc1ccncc1)Nc1ccc(-c2nccc(N3CC4CCC(C3)O4)n2)cc1` [Example 61, 1-(4-(4-(8-oxa-3-azabicyclo[3.2.1]octan-3-yl)pyrimidin-2-yl)phenyl)-3-(pyridin-4-yl)urea], less than 100 nM. Under `CS(=O)(=O)c1ccc(F)cc1-c1cc(-c2ccc(NC(=O)NCCO)cc2)nc(N2CCOCC2)n1` [Example 62, 1-(4-(6-(5-fluoro-2-(methylsulfonyl)phenyl)-2-morpholinopyrimidin-4-yl)phenyl)-3-(2-hydroxyethyl)urea] stands less than 100 nM; under `C[C@H]1COCCN1c1nc(-c2ccc(NC(=O)NCCCO)cc2)cc(-c2cc(F)ccc2S(C)(=O)=O)n1` [Example 64, (S)-1-(4-(6-(5-fluoro-2-(methylsulfonyl)phenyl)-2-(3-methylmorpholino)pyrimidin-4-yl)phenyl)-3-(3-hydroxypropyl)urea], less than 100 nM; under `C[C@H]1COCCN1c1nc(-c2ccc(NC(=O)N[C@H]3CCC[C@@H]3O)cc2)cc(-c2cc(F)ccc2S(C)(=O)=O)n1` [Example 76, 1-(4-(6-(5-fluoro-2-(methylsulfonyl)phenyl)-2-((S)-3-methylmorpholino)pyrimidin-4-yl)phenyl)-3-((1S,2S)-2-hydroxycyclopentyl)urea], less than 100 nM.
